Consider 3 molecules from US12589092B2, “Polycyclic compound acting as kinase inhibitor” (HANGZHOU INNOGATE PHARMA CO., LTD., priority 2020, dated 2026).

The structures appear in SMILES notation. Some results are limits rather than exact numbers.

Sequence of CDK5/p35NCK (Q00535 whole entry): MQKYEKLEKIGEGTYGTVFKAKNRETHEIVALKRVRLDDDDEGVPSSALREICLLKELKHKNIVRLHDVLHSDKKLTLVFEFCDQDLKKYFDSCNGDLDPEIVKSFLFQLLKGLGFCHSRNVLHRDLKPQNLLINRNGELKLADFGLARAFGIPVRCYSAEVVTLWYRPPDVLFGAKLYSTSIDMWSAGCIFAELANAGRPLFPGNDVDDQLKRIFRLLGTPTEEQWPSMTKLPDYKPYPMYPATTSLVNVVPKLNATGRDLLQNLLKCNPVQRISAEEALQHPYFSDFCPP
Sequence of CDK5/p35NCK (Q15078 whole entry partner): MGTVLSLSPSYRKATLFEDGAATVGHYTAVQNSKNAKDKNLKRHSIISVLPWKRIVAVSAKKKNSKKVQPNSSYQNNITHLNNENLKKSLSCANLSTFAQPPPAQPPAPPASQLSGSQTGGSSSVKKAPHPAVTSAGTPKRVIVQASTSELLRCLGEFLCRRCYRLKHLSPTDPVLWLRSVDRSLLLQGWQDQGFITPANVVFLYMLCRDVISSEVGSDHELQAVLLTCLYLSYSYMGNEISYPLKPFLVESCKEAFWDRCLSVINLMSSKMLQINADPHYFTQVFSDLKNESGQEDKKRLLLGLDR
Sequence of CDK9/CycT1 (P50750 whole entry): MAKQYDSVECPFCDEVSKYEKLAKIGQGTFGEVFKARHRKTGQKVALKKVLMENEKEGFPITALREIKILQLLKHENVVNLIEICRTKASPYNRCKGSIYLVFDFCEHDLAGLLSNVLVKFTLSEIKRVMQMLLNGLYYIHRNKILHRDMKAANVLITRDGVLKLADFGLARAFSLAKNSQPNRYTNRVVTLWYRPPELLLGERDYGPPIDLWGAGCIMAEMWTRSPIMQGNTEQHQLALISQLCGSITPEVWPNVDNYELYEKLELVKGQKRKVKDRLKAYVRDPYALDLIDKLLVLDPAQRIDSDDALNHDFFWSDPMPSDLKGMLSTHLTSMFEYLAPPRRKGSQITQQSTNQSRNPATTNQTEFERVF
Sequence of CDK9/CycT1 (O60563 whole entry partner): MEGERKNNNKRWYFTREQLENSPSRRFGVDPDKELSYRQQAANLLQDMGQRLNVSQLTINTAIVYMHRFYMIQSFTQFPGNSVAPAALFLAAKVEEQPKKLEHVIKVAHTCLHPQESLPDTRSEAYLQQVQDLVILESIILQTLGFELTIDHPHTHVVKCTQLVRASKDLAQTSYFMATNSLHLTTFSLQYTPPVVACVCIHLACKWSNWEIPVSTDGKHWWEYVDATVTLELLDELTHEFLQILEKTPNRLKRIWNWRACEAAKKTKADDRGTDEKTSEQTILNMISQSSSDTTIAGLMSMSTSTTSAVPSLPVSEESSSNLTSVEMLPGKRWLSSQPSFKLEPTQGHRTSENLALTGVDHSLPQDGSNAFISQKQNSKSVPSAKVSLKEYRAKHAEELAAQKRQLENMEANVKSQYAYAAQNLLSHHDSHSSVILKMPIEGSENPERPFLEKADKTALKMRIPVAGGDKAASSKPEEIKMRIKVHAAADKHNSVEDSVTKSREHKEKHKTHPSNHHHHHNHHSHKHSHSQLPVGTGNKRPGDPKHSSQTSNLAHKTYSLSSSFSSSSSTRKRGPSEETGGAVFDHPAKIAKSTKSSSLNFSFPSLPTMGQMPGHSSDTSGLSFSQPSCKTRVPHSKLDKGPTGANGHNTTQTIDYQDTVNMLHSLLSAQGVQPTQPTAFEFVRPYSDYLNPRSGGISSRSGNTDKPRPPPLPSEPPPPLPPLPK

One series addresses CDK2/CycA2 (Homo sapiens, UniProt P24941). Briefly: CDK2 kinase activity inhibition assay (caliper mobility shift). It is filed as biochemical. The note with it: CDK2/CycA2 12 nM, ATP 39 μM; read-out: CDK2 kinase inhibitory activity (IC50). The protocol: (§1) 1) CDK2, CDK4 and CDK6 Kinase Activity Inhibition Assay
(§2) In vitro enzymatic activity of the CDK isoforms CDK2/CycA2, CDK4/CycD3 and CDK6/cycD3 were measured using caliper mobility shift assay. Dissolve the compounds in DMSO and dilute them with corresponding kinase buffer (CDK2/CycA2 and CDK6/CycD3 were assayed with buffer conditions of 50 mM HEPES (pH 7.5), 10 mM MgCl2, 0.0015% Brij-35 and 2 mM dithiothreitol; CDK4/CycD3 was assayed with buffer condition of 20 mM HEPES (pH 7.5), 10 mM MgCl2, 0.01% Triton X-100 and 2 mM dithiothreitol). Add 5 μl of compound (10% DMSO) with 5 times the final concentration of the reaction to a 384-well plate. […] Collect conversion data on Caliper EZ Reader II (Caliper Life Sciences). Convert the conversion rate into inhibition rate data (% inhibition rate=(max−conversion rate)/(max−min)*100). […] Draw a curve with the concentration and inhibition rate of the compound as abscissa and ordinate, and use XLFit excel add-in version 4.3.1 software to fit the curve and calculate IC50.
With `CCN1CCC(N2CCN3c4ccc(Nc5ncc6c(C)c(C(C)=O)c(=O)n(C7CCCC7)c6n5)cc4OC[C@@H]3C2)CC1` [Compound 4S], the IC50 (in general, the midpoint of a concentration-inhibition curve) was < 100 nM.

As to `CC(=O)c1c(C)c2cnc(Nc3ccc4c(c3)OC[C@H]3CN(C5CCN(C(C)=O)CC5)CCN43)nc2n(C2CCCC2)c1=O` [Compound 5R], the IC50 was < 100 nM.

`CC(=O)c1c(C)c2cnc(Nc3ccc4c(c3)OC[C@@H]3CN(C5CN(C)C5)CCN43)nc2n(C2CCCC2)c1=O` [Compound 7S]: the IC50 is < 100 nM.

For a further series, the target named is CDK4/CycD3 (Homo sapiens, UniProt P11802). As to the kind of experiment: CDK4 kinase activity inhibition assay (caliper mobility shift). Conditions: CDK4/CycD3 10 nM, ATP 221 μM; read-out: CDK4 kinase inhibitory activity (IC50). The class given is biochemical. How it is done: as §1, §2
Sequence of CDK4/CycD3 (P11802 whole entry): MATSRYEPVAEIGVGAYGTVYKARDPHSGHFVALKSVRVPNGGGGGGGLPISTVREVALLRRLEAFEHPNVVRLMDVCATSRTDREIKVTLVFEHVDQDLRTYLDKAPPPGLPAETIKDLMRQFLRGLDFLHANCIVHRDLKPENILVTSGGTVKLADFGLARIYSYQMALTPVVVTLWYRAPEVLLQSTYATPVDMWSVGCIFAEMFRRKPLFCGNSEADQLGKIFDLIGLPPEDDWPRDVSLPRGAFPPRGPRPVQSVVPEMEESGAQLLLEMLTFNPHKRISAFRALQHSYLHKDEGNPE
Sequence of CDK4/CycD3 (P30281 whole entry partner): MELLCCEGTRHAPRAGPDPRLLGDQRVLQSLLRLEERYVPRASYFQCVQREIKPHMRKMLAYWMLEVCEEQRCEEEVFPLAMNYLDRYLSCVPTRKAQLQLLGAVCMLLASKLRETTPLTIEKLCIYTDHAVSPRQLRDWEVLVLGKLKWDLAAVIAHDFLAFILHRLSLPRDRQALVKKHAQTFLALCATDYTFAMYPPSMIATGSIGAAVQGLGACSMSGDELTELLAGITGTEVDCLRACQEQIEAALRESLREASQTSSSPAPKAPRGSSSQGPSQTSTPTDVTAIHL
As to `CCN1CCC(N2CCN3c4ccc(Nc5ncc6c(C)c(C(C)=O)c(=O)n(C7CCCC7)c6n5)cc4OC[C@@H]3C2)CC1` [Compound 4S], the concentration for half-maximal inhibition (IC50) is < 10 nM.

As for `CC(=O)c1c(C)c2cnc(Nc3ccc4c(c3)OC[C@H]3CN(C5CCN(C(C)=O)CC5)CCN43)nc2n(C2CCCC2)c1=O` [Compound 5R], the IC50 is < 10 nM.

On to `CC(=O)c1c(C)c2cnc(Nc3ccc4c(c3)OC[C@@H]3CN(C5CN(C)C5)CCN43)nc2n(C2CCCC2)c1=O` [Compound 7S], for which the IC50 is < 10 nM.

In a further series the target is CDK6/cycD3 (Homo sapiens, UniProt Q00534). As to the kind of experiment: CDK6 kinase activity inhibition assay (caliper mobility shift). Conditions: CDK6/cycD3 15 nM, ATP 800 μM; read-out: CDK6 kinase inhibitory activity (IC50). It is filed as biochemical. How it is done: as §1, §2
Sequence of CDK6/cycD3 (Q00534 whole entry): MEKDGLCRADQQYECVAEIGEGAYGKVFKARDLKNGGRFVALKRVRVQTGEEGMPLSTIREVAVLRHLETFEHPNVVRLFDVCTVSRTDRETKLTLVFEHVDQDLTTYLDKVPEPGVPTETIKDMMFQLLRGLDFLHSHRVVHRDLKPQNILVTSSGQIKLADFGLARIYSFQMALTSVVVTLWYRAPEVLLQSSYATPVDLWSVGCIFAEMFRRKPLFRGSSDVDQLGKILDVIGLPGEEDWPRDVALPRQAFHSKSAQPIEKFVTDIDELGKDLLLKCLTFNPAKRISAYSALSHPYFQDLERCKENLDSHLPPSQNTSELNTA
Sequence of CDK6/cycD3 (P30281 whole entry partner): as the sequence (P30281 whole entry partner) above
Consider `CCN1CCC(N2CCN3c4ccc(Nc5ncc6c(C)c(C(C)=O)c(=O)n(C7CCCC7)c6n5)cc4OC[C@@H]3C2)CC1` [Compound 4S], for which the IC50 was < 10 nM.

In the case of `CC(=O)c1c(C)c2cnc(Nc3ccc4c(c3)OC[C@H]3CN(C5CCN(C(C)=O)CC5)CCN43)nc2n(C2CCCC2)c1=O` [Compound 5R], the IC50 is < 20 nM.

With `CC(=O)c1c(C)c2cnc(Nc3ccc4c(c3)OC[C@@H]3CN(C5CN(C)C5)CCN43)nc2n(C2CCCC2)c1=O` [Compound 7S], the IC50 was < 10 nM.

A further series addresses CDK5/p35NCK (Homo sapiens, UniProt Q00535). Briefly: CDK5 kinase activity inhibition assay (ADP-Glo). The class given is biochemical. Conditions: read-out: CDK5 kinase inhibitory activity (IC50). The protocol:
(§3) 3) CDK5, CDK9 and CDK16 Kinase Activity Inhibition Assay
(§4) CDK5/p35NCK, CDK9/CycT1 and CDK16/CycY protein kinase activities were determined using the ADP-Glo Kinase Assay. Dilute the positive compound and the test compound (10 mM stock solution) 25-fold with 100% DMSO, make a 4-fold serial dilution in a 96-well dilution plate, and add 1 μL of the compound to 49 μL of kinase reaction buffer (1 mM Tris, 20 mM MgCl2, 0.10% BSA and 0.5 mM DTT) on a microplate shaker for 20 min. Transfer 2 μL of 2× kinase to the 384-well reaction plate, add 1 μL of the test compound to the 384-well reaction plate, centrifuge at 1000 rpm/min for 1 min, and incubate at 25° C. for 10 min. Transfer 1 μL of the 4× substrate mix to the 384-well reaction plate, centrifuge at 1000 rpm/min for 1 min, and incubate at 25° C. for 60 min. Transfer 4 μL of ADP-Glo to the 384-well reaction plate to centrifuge at 1000 rpm/min for 1 min, and incubate at 25° C. for 40 min. Transfer 8 μL of detection solution to the 384-well reaction plate to centrifuge at 1000 rpm/min for 1 min, and incubate at 25° C. for 40 min. The RLU (Relative luminescence unit) signal was read using a Biotek multifunctional plate reader. Signal intensity is used to characterize the degree of kinase activity. Compound inhibition rate data: % inhibition rate=[1−(compound mean RLU−positive control mean RLU)/(negative control mean RLU−positive control mean RLU)]*100. Taking the log value of the concentration as the X axis and the percentage inhibition rate as the Y axis, the log(inhibitor) vs. response-Variable slope of the analysis software GraphPad Prism 5 was used to fit the dose-response curve to obtain the IC50 value of each compound on the enzyme activity.
In general terms: In ADP-Glo the light output rises with the ADP produced.
Take `CCN1CCC(N2CCN3c4ccc(Nc5ncc6c(C)c(C(C)=O)c(=O)n(C7CCCC7)c6n5)cc4OC[C@@H]3C2)CC1` [Compound 4S]: the half-maximal inhibitory concentration (IC50) was < 100 nM.

As to `CC(=O)c1c(C)c2cnc(Nc3ccc4c(c3)OC[C@H]3CN(C5CCN(C(C)=O)CC5)CCN43)nc2n(C2CCCC2)c1=O` [Compound 5R], the IC50 was < 200 nM.

As to `CC(=O)c1c(C)c2cnc(Nc3ccc4c(c3)OC[C@@H]3CN(C5CN(C)C5)CCN43)nc2n(C2CCCC2)c1=O` [Compound 7S], the IC50 is < 100 nM.

In another series the target is CDK9/CycT1 (Homo sapiens, UniProt P50750). Briefly: CDK9 kinase activity inhibition assay (ADP-Glo). Conditions: read-out: CDK9 kinase inhibitory activity (IC50). It is filed as biochemical. How it is done:
as §3, §4
Turning to `CCN1CCC(N2CCN3c4ccc(Nc5ncc6c(C)c(C(C)=O)c(=O)n(C7CCCC7)c6n5)cc4OC[C@@H]3C2)CC1` [Compound 4S], the IC50 was < 20 nM.

Regarding `CC(=O)c1c(C)c2cnc(Nc3ccc4c(c3)OC[C@H]3CN(C5CCN(C(C)=O)CC5)CCN43)nc2n(C2CCCC2)c1=O` [Compound 5R], the IC50 is < 50 nM.

Turning to `CC(=O)c1c(C)c2cnc(Nc3ccc4c(c3)OC[C@@H]3CN(C5CN(C)C5)CCN43)nc2n(C2CCCC2)c1=O` [Compound 7S], the IC50 is < 50 nM.

For another series, the target named is CDK16/CycY (Homo sapiens, UniProt Q00536). As to the kind of experiment: CDK16 kinase activity inhibition assay (ADP-Glo). The class given is biochemical. Conditions: read-out: CDK16 kinase inhibitory activity (IC50). How it is done: as §3, §4
Sequence of CDK16/CycY (Q00536 whole entry): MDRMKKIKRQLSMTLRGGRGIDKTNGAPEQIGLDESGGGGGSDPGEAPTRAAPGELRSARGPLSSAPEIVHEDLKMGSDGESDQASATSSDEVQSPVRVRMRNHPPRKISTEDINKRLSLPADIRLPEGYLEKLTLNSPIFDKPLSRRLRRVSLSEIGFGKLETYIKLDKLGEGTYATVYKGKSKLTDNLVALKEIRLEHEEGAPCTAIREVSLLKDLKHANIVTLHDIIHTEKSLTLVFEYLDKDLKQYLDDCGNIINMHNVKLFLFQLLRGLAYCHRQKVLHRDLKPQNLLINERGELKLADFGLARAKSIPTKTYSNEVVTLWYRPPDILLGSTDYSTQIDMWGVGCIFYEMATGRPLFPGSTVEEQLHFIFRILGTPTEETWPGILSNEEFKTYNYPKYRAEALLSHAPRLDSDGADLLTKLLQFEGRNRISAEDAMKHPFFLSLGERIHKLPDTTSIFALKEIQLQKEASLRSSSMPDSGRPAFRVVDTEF
Sequence of CDK16/CycY (Q8ND76 whole entry partner): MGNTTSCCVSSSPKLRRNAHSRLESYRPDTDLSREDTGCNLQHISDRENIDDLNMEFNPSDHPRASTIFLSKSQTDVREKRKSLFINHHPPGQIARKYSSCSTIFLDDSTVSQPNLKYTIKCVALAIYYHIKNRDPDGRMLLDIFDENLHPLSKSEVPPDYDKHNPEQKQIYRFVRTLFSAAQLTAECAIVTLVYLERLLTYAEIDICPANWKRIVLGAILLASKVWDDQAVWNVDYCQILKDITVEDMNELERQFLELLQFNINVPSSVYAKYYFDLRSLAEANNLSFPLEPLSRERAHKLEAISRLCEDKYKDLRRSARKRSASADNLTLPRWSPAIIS
For the molecule `CCN1CCC(N2CCN3c4ccc(Nc5ncc6c(C)c(C(C)=O)c(=O)n(C7CCCC7)c6n5)cc4OC[C@@H]3C2)CC1` [Compound 4S], the IC50 was < 100 nM.

Regarding `CC(=O)c1c(C)c2cnc(Nc3ccc4c(c3)OC[C@H]3CN(C5CCN(C(C)=O)CC5)CCN43)nc2n(C2CCCC2)c1=O` [Compound 5R], the half-inhibitory concentration (IC50) is < 200 nM.

In the case of `CC(=O)c1c(C)c2cnc(Nc3ccc4c(c3)OC[C@@H]3CN(C5CN(C)C5)CCN43)nc2n(C2CCCC2)c1=O` [Compound 7S], the IC50 was < 100 nM.

In another series the target is TRKA (Homo sapiens, UniProt P04629). Briefly: TRKA kinase activity inhibition assay (caliper mobility shift). The class given is biochemical. The note with it: read-out: TRKA kinase inhibitory activity (IC50). How it is done: 2) TRKA Kinase Activity Inhibition Assay
Sequence of TRKA (P04629 33-796): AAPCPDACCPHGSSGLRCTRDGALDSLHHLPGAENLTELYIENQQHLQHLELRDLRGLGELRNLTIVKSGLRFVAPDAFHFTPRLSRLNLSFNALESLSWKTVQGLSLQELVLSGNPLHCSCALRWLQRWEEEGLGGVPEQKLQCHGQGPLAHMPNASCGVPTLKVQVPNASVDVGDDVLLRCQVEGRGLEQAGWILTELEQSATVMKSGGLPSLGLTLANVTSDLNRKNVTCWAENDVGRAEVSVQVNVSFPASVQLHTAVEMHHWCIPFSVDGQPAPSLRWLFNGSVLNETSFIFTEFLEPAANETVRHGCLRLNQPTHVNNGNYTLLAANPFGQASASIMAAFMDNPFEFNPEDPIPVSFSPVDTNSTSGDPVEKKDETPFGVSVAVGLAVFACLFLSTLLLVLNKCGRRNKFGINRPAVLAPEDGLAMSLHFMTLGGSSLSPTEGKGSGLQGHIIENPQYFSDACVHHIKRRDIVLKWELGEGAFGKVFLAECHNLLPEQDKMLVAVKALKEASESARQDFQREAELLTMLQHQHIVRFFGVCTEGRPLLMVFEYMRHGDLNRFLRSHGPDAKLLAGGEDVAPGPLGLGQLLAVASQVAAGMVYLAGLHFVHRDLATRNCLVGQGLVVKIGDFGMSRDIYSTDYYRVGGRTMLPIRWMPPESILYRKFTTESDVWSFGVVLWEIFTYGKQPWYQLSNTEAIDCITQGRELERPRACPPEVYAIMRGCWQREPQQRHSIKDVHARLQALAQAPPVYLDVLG
TRKA protein kinase activity was measured by caliper mobility shift assay. Compounds were dissolved in DMSO to make up 10 mM stock solutions. Prepare 1× kinase reaction buffer to serially dilute compounds. 250 nL 100× final concentration of the test compounds were transferred to destination plate 3573 by dispenser Echo 550. Prepare a 2.5× final concentration of kinase solution with 1× kinase buffer. Add 10 μL of 2.5× final kinase solution to compound wells and positive control wells; add 10 μL of 1× kinase buffer to negative control wells. Centrifuge at 1000 rpm for 30 s, shake and mix the reaction plate and incubate at room temperature for 10 min. Prepare a mixture of ATP and kinase substrate solution at 5/3× final concentration with 1× kinase buffer. The reaction was initiated by adding 15 μL of the mixed solution. Centrifuge the 384-well plate at 1000 rpm for 30 s, shake and mix well, and incubate at room temperature for the corresponding time. Add 30 μL of stop solution to stop the kinase reaction, centrifuge at 1000 rpm for 30 s, mix by shaking, and read the conversion rate data with Caliper EZ Reader. Convert conversion to inhibition data (% inhibition=(max DMSO well conversion−sample well conversion)/(max DMSO well conversion−min negative control conversion)*100). Wherein max refers to the conversion rate of the DMSO control, and min refers to the conversion rate of the non-enzymatic control. Draw a curve with the concentration and inhibition rate of the compound as abscissa and ordinate, and use XLFit excel add-in version 4.3.1 software to fit the curve and calculate IC50.
As for `CCN1CCC(N2CCN3c4ccc(Nc5ncc6c(C)c(C(C)=O)c(=O)n(C7CCCC7)c6n5)cc4OC[C@@H]3C2)CC1` [Compound 4S], the IC50 was < 10 nM.

As to `CC(=O)c1c(C)c2cnc(Nc3ccc4c(c3)OC[C@H]3CN(C5CCN(C(C)=O)CC5)CCN43)nc2n(C2CCCC2)c1=O` [Compound 5R], the IC50 is < 10 nM.

`CC(=O)c1c(C)c2cnc(Nc3ccc4c(c3)OC[C@@H]3CN(C5CN(C)C5)CCN43)nc2n(C2CCCC2)c1=O` [Compound 7S]: the IC50 was < 10 nM.

Test system in a further series: not listed separately
As to the kind of experiment: Pharmacokinetic study in rats (intragastrical administration, plasma LC-MS/MS). The note with it: male, SD, rat, po, 3 mg/kg.
Experimental: Instruments: XEVO TQ-S LC/MS instrument produced by Waters. All measurement data is collected and processed by Masslynx V4.1 software, and the data is calculated and processed by Microsoft Excel. Using WinNonLin 8.0 software, the statistical moment method was used to calculate the pharmacokinetic parameters. Mainly include kinetic parameters Tmax, T1/2, Cmax, AUClast etc. Column: ACQUITY UPLC BEH C18 (2.1 mm×50 mm, 1.7 μm); column temperature 40° C.; mobile phase A is water (0.1% formic acid), mobile phase B is acetonitrile, flow rate is 0.350 ml/min, gradient elution is adopted, the elution gradient is 0.50 min: 10% B; 1.50 min: 10% B; 2.30 min: 95% B; 2.31 min: 10% B; 3.00 min: stop. Injection volume: 5 μL.
Animals: 3 male SD rats with a weight range of 200-220 g. After purchase, they will be kept in the laboratory of the Experimental Animal Center for 2 days and then used. They will be fasted for 12 hours predose and 4 hours after dosing. Drinking water is free during the test. After the rats were gavage, blood samples were taken according to the established time point.
Solvent: 0.5% Methylcellulose (aqueous solution containing 0.4% Tween 80 and 1% ethanol). Preparation of the solution for intragastrical administration: accurately weigh the compound, add it to the solvent, and use ultrasound at room temperature for 5 minutes to completely dissolve the drug, and prepare a 0.3 mg/ml medicinal solution.
A single administration was also used to study the pharmacokinetics of the drug sample in rats.
After intragastrical administration, blood was taken from the orbit at 0.25, 0.5, 1, 2, 4, 9, 12 and 24 hours, and placed in a plastic centrifuge tube pretreated with sodium heparin. After centrifugation, the supernatant plasma was used for LC-MS/MS analysis.
Accurately weigh the compounds to prepare different concentrations, perform quantitative analysis on mass spectrometry to establish a standard curve, and then test the concentration of the above-mentioned compound in the plasma to obtain the compound concentration at different time points. All measurement data are collected and processed by relevant software, and the statistical moment method is used to calculate the pharmacokinetic parameters (mainly including kinetic parameters Tmax, T1/2, Cmax, AUClast etc).
As to `CCN1CCC(N2CCN3c4ccc(Nc5ncc6c(C)c(C(C)=O)c(=O)n(C7CCCC7)c6n5)cc4OC[C@@H]3C2)CC1` [Compound 4S], the AUC(0-t) – broadly, the area under the concentration-time curve up to a stated or last time point – came to 3770 ng·h/mL; the concentration peaked (Cmax) at 250 ng/mL; the Tmax – broadly, the time from dosing to the highest level – amounted to 12 h; the half-life (in general, how long it takes for the measured level to halve) was 10.7 h.

Consider `CC(=O)c1c(C)c2cnc(Nc3ccc4c(c3)OC[C@H]3CN(C5CCN(C(C)=O)CC5)CCN43)nc2n(C2CCCC2)c1=O` [Compound 5R], for which the AUC(0-t) is 4350 ng·h/mL, the Cmax (commonly the peak of the concentration-time curve) worked out at 438 ng/mL, the time to peak (Tmax) is 6.67 h and the half-life is 2.91 h.

As to `CC(=O)c1c(C)c2cnc(Nc3ccc4c(c3)OC[C@@H]3CN(C5CN(C)C5)CCN43)nc2n(C2CCCC2)c1=O` [Compound 7S], the AUC(0-t) was 1940 ng·h/mL, the highest level (Cmax) was 133 ng/mL, the Tmax is 9.33 h and the half-life was 3.19 h.
